Source: US20110071163A1, “USE OF AN OPIOID RECEPTOR ANTAGONIST FOR THE TREATMENT OR PREVENTION OF GASTROINTESTINAL TRACT DISORDERS” (ADOLOR CORPORATION, priority 2009, published 2011)
Several values for one entry are separate records, joined by “and”; a condition that tells them apart may be missing. Identical values can stand only once. Entries after “also recorded” stand apart in the source; their conditions may differ. Like-named read-outs stand apart in the source and are kept apart here.

Assays:
[1] = tested on: opioid receptors in the central nervous system; assay: Rat formalin test: reversal of morphine analgesia; type: in vivo; settings: for Potency of naltrexone relative to Compound I in reversing the effects of morphine in the CNS: morphine 10 mg/kg s.c., naltrexone s.c., Compound I oral
Procedure: Rats were injected with the irritant formalin and with 10 mg/kg of morphine subcutaneously. The amount of analgesia was determined by the reduction in the number of times the rat licked or paid attention to the site of formalin injection (events). Rats were dosed either with 0.02 mg/kg naltrexone (subcutaneous dose) or 1, 3 or 10 mg/kg Compound I (oral dose) to determine the ability of the compounds to reverse the analgesic effect of morphine. […] The reversal of morphine-induced analgesia by opioid receptor antagonists in the formalin test is believed to be primarily a centrally-mediated effect.

opioid receptors = assay: Reversal of morphine-induced inhibition of gastrointestinal transit of charcoal meal in mice; type: in vivo; settings: Compound I oral dose
Procedure: Mice were either dosed with 10 μg/kg morphine intracerebroventricularly or with 1 mg/kg morphine subcutaneously. The degree of gastrointestinal transit of charcoal meal in the mice was measured in the absence of Compound I and in the presence of varying oral doses of Compound I in order to determine the ability of the compound to reverse the inhibition of gastrointestinal (GI) transit induced by morphine. The minimum effective dose of Compound I required to reverse GI transit inhibition in mice dosed with morphine directly into the CNS was determined to be about 3.0 mg/kg oral dose. (FIG. 2) In contrast, the effective dose of Compound I required to reverse GI transit inhibition in mice dosed with morphine systemically was determined to be about 0.16 mg/kg oral dose.

[2] = tested on: P-glycoprotein (P-gp) transporter; assay: Partitioning in plasma and brain of wild-type and P-glycoprotein knockout mice; type: in vivo
Procedure: Wild-type or P-glycoprotein (P-gp) knockout mice were dosed with 2.5 mg/kg of Compound I intravenously. The mice were sacrificed and the amounts of Compound I in the blood and in the brain were assayed using standard techniques. […] Moreover, blood-brain barrier penetration of Compound I increased 7- to 19-fold in knockout mice that were deficient in the P-gp transporter.

[3] = molecular target: T1, cloned human μ-opioid receptors (Homo sapiens, UniProt P35372); assay: In vitro receptor binding in CHO cell membranes; settings: CHO cell membranes expressing cloned human μ-opioid receptors
T1 construct: expressed in transfected cells; host or cells: CHO cells (membranes)
T1 sequence (P35372 whole entry): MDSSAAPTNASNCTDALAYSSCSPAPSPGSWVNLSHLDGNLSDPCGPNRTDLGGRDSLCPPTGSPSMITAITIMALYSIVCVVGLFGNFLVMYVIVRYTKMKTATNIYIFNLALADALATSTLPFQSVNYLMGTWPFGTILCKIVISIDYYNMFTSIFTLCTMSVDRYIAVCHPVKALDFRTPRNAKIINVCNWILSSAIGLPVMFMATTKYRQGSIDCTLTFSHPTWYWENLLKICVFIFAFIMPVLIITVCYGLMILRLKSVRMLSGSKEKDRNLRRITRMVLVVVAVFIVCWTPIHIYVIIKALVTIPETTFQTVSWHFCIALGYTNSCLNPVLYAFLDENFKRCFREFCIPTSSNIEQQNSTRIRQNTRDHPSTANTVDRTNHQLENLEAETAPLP

[4] = Phase 1 oral pharmacokinetics of Compound I in healthy subjects; type: in vivo, human; settings: for Mean free Cmax plasma level: 1 mg single oral dose, healthy subjects
Procedure: (§1) The first approach was a calculation based on comparison of pharmacokinetic and pharmacological data for the highly peripheralized opioid receptor antagonist alvimopan. […] Webster et al. (2008) Pain 137:428-440.
If there is a potential for a degree of drug accumulation upon repeated dosing regimens, the doses associated with efficacy for treating OIC or OBD may be appreciably lower than the doses calculated above, i.e., as low as 0.01 to 0.02 mg whole body dose QD or BID (for a human weighing approximately 70 kg).

[5] = Plasma protein binding (human); type: in vitro ADME; settings: read-out: Plasma protein binding (% free drug)
[6] = Plasma protein binding (mouse); type: in vitro ADME; settings: read-out: Plasma protein binding (% free drug)
[7] = tested on: opioid receptors in the CNS; assay: Phase 1 pharmacodynamic markers of central opioid receptor antagonism (morphine-induced miosis, ACTH, cortisol); type: in vivo, human; settings: humans
Procedure: Determination of the lowest dose of Compound I that produces antagonism of opioid receptors in the CNS was addressed directly by examining the reported effect of Compound I on pharmacodynamic markers of central opioid receptor antagonism that were measured in the single and multiple dose Phase 1 clinical studies, i.e., the reversal of morphine-induced miosis (the effect on pupil diameter) and increases in adrenocorticotropic hormone (ACTH) and cortisol. The observed whole body dose of Compound I associated with a threshold reversal of morphine-induced miosis was 10 mg. Likewise, the observed whole body dose of Compound I associated with threshold increases in ACTH and cortisol was between 10 and 25 mg. A conservative estimate of the whole body dose for central opioid receptor antagonism was then determined by reducing these observed threshold doses by a half-log factor (i.e., 3-fold). Thus, the minimum doses of Compound I associated with pharmacologically relevant antagonism of opioid receptors in the CNS were conservatively estimated to be in the range of from about 3 mg to about 10 mg.

μ-opioid receptor = molecular target: T2, μ-opioid receptor (Homo sapiens, UniProt P35372); assay: Calculated effective dose and pharmacokinetic model of Compound I for treating OIC or OBD; settings: humans
T2 construct: expressed in transfected cells; host or cells: CHO cells (membranes)
T2 sequence (P35372 whole entry): as above
Source text: (§2) There are a number of approaches to determining the effective dose of Compound I for treating OIC or OBD. Four are outlined below. Depending on the approach, a number of basic assumptions were made in calculating the effective dose of Compound I for treating OIC or OBD: (i) The μ-opioid receptor is the primary target of Compound I to produce efficacy in the treatment of OIC or OBD, although other opioid receptors may also play a role. (ii) The systemic presence of Compound I in the periphery (but not in the CNS) is sufficient to produce robust efficacy in treating OIC or OBD. Thus, calculations were based on systemic plasma concentrations as opposed to possible topical or local effects in gut tissues, though these may also contribute to efficacy. (iii) The pharmacokinetic properties, specifically the oral bioavailability, of Compound I will be roughly similar in healthy volunteers and in patients with OIC or OBD.
as §1
A second approach was a calculation based on the potency (Ki) of Compound I as an antagonist for the […] receptor.
A third approach was to generate a pharmacokinetic model for Compound I at low doses. This was accomplished by assuming a linear relationship between dose and all parameters of the plasma time course for the 1 mg dose of Compound I, and extrapolating these to lower doses.

[8] = Phase I multiple ascending dose clinical study in subjects with OIC; type: in vivo, human
Source text: The objective of the Phase I multiple ascending dose clinical study was to evaluate the safety, tolerability, pharmacokinetics, and clinical effect of multiple ascending doses of Compound I administered twice daily (BID) to subjects who have opioid induced constipation (OIC) as a result of chronic opioid therapy for persistent noncancer pain. The first part of the study was a randomized, double blind, placebo controlled, multiple ascending dose study during which subjects took 4 oral doses of study medication over 2 days while confined to the study unit. Each of the 0.10 mg, 0.25 mg, 0.35 mg, 0.50 mg […] BID dose cohorts included 4 subjects, and randomization was unbalanced, with a 3:1 ratio of Compound I treatment (n=3) to placebo treatment (n=1). The 0.75 mg BID cohort included only 2 subjects. Assessments of clinical effect included the following measures, which were assessed starting immediately after the first dose of study medication through discharge on day 3: (i) time to first bowel movement after the first dose of study medication; (ii) number of bowel movements; and (iii) bowel movement Comfort Scores, stool weight, and stool consistency as measured by the Bristol Stool Scale for each bowel movement that occurs while the subject was confined to the study unit.
For pharmacokinetic analyses, blood samples were collected from each subject on day 1 at approximately 1 hour before the first dose of study medication (time 0) and at each of the following times after the first dose of study medication: 15 min, 30 min, 60 min, 90 min, 2 h, 3 h, 4 h, 6 h, 8 h, 10 h, and 12 h. FIGS. 7A, 7B and 7C indicate the plasma levels of Compound I obtained after the first dose over the dosing interval of 12 h and for each of the 5 doses tested (0.10 mg, 0.25 mg, 0.35 mg, 0.50 mg and 0.75 mg BID).

[9] = Oral bioavailability in cynomologus monkey; settings: in vivo, 0.1 mg/kg to 0.5 mg/kg
Source text: as §2

[10] = Oral bioavailability in rat; type: in vivo
[11] = 0.5 mg BID, patients with OIC or OBD, Phase 2 (Webster et al. 2008), cited from earlier work
[12] = 0.10 mg and 0.25 mg doses, preliminary

O=C1CC[C@@]2(O)[C@H]3Cc4ccc(O)c5c4[C@@]2(CCN3CC2CC2)[C@H]1O5 [naltrexone]
Potency of naltrexone relative to Compound I in reversing the effects of morphine in the CNS [1]: more than 100 times | Potency of naltrexone relative to Compound I in reversing the effects of morphine in the CNS ([1]; listed as Naltrexone): approximately 100 times

COc1cc(CNCCC2CCOCC2)ccc1Oc1cnc(C(N)=O)cn1 [Compound I, 5-(2-methoxy-4-{[2-(tetrahydro-pyran-4-yl)-ethylamino]-methyl}-phenoxy)-pyrazine-2-carboxamide]
Times less potent than naltrexone as antagonist of opioid receptors in the central nervous system [1]: at least 100 times | Minimum effective dose to reverse GI transit inhibition (opioid receptors; morphine 10 μg/kg intracerebroventricularly (direct CNS)): about 3.0 mg/kg | Effective dose to reverse GI transit inhibition (opioid receptors; morphine 1 mg/kg subcutaneously (systemic)): about 0.16 mg/kg | P-gp transport ([2]; concluded from knockout mice): substrate for the efflux transporter P-gp | Compound I in blood plasma relative to brain ([2]; wild type mice, 2.5 mg/kg intravenously): 17 times | Ki [3]: 0.36 nM | Mean free Cmax plasma level ([4]; converted with MW 386.4 g/mol): 2.98 nM | Mean free Cmax plasma level ([4]; free drug estimated with mouse plasma protein binding): 1.15 ng/ml and 1.15^2 ng/ml | half-life ([4]; human, plasma, oral, humans, doses of 1-3 mg): ~12 h | Oral pharmacokinetics versus dose ([4]; humans, dose range 1 mg to 100 mg): highly consistent and dose-proportional | fraction unbound [5]: 0.738 | fraction unbound [6]: 0.64 | Whole body dose associated with threshold reversal of morphine-induced miosis [7]: 10 mg | Whole body dose effective in treating OIC or OBD without antagonizing CNS μ-opioid receptors (calculated) (μ-opioid receptor; QD or BID, multiple rationales): approximately 0.1 mg/day | Whole body dose needed to achieve 0.36 nM of free drug (second approach) (μ-opioid receptor; linear extrapolation): 0.12 mg | Dose needed to produce a free drug plasma Cmax of 0.1 ng/ml (μ-opioid receptor; linear extrapolation below 1 mg): 0.087 mg | Amount effective for treating OIC or OBD confirmed in Phase I clinical studies [8]: approximately 0.1 mg/day | Pharmacological effect [8, 12]: produced the desired pharmacological effects | Tolerability [8, 12]: well-tolerated; also recorded: well tolerated | bioavailability [9]: ~100% | Oral bioavailability [10]: high oral bioavailability

C[C@H]1CN(C[C@H](Cc2ccccc2)C(=O)NCC(=O)O)CC[C@@]1(C)c1cccc(O)c1 [Alvimopan, alvimopan]
fraction unbound [5]: 0.203 | Mean free Cmax plasma level [11]: 0.1^1 ng/ml | Mean free Cmax plasma level ([11]; listed as alvimopan): approximately 0.1 ng/ml
